Blank lines part the entries; values can stand above or below the compound they belong to.
Target: T1, S-type amylase (Calibzyme S) (Homo sapiens, UniProt P0DUB6)
T1 construct: purchased International Reagents Corporation Calibzyme S
T1 sequence (P0DUB6 16-511): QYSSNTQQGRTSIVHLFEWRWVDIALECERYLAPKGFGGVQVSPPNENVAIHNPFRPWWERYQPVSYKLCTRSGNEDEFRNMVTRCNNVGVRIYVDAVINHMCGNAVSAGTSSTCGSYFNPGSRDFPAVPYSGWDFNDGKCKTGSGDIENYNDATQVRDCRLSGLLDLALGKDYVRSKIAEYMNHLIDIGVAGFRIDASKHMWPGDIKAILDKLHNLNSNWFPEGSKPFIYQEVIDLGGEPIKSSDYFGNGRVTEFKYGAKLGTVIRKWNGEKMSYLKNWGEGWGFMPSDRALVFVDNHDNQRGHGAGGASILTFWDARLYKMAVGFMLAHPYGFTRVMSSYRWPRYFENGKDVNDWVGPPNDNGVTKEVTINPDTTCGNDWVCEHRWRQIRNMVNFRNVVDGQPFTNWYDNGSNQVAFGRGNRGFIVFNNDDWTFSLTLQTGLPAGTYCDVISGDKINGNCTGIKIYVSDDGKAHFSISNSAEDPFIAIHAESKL
Assay: amylase isozyme activity assay with potassium thiocyanate as activator, S-type amylase sample
Type: biochemical
Settings: for Relative sensitivity: G3CNP at 900 mM = 100; for Percent residual enzyme activity: composition A/B
Description: A reagent for amylase isozyme activity assay comprising each composition as mentioned below was prepared. In the Table showing the composition, GalG2CNP (Example) is 2-chloro-4-nitrophenyl 4-O-β-D-galactopyranosylmaltoside, and G3CNP (Comparative Example) is 2-chloro-4-nitrophenylmaltotrioside.
S-type amylase-inhibiting antibody 88E8 (manufactured by Roche Diagnostics K.K.) 20 mg/L
S-type amylase-inhibiting antibody 66C7 (manufactured by Roche Diagnostics K.K.) 5 mg/L
Substrate (GalG2CNP (Example) or G3CNP (Comparative Example)) 2.6 mM
(3) S-type Amylase (Calibzyme S, Manufactured by International Reagents Corporation)
Each sample (0.05 mL was added to the reagent A (3 mL) and the reagent B (3 mL), respectively, and the mixtures were allowed to stand at 37° C. for 3 minutes. Then, the change in absorbance at 405 nm was assayed, and the change in absorbance per minute was calculated. The results are shown in Tables 1 and 2.
In the Tables, P is the case where P-type amylase was used as the sample, and S is the case where S-type amylase was used.
Percent residual enzyme activity (%)=(change in absorbance of composition A)/(change in absorbance of composition B)×100
Relative sensitivity (%)=(change in absorbance of composition B)/(change in absorbance of Comparative Example wherein potassium thiocyanate was 900 mM)×100

Change in absorbance, Containing Antibody (Composition A) (potassium thiocyanate 0 mM): 0.9 mABS/min | Change in absorbance, Without antibody (Composition B) (potassium thiocyanate 0 mM): 14.3 mABS/min | Relative sensitivity (potassium thiocyanate 0 mM): 32.0% | Percent residual enzyme activity (potassium thiocyanate 0 mM): 6.3% | Change in absorbance, Containing Antibody (Composition A) (potassium thiocyanate 50 mM): 1.4 mABS/min | Change in absorbance, Without antibody (Composition B) (potassium thiocyanate 50 mM): 31.1 mABS/min | Relative sensitivity (potassium thiocyanate 50 mM): 69.6% | Percent residual enzyme activity (potassium thiocyanate 50 mM): 4.5% | Change in absorbance, Containing Antibody (Composition A) (potassium thiocyanate 100 mM): 1.7 mABS/min | Change in absorbance, Without antibody (Composition B) (potassium thiocyanate 100 mM): 40.2 mABS/min | Relative sensitivity (potassium thiocyanate 100 mM): 89.9% | Percent residual enzyme activity (potassium thiocyanate 100 mM): 4.2% | Change in absorbance, Containing Antibody (Composition A) (potassium thiocyanate 140 mM): 1.8 mABS/min | Change in absorbance, Without antibody (Composition B) (potassium thiocyanate 140 mM): 44.6 mABS/min | Relative sensitivity (potassium thiocyanate 140 mM): 99.8% | Percent residual enzyme activity (potassium thiocyanate 140 mM): 4.0% | Change in absorbance, Containing Antibody (Composition A) (potassium thiocyanate 200 mM): 2.2 mABS/min | Change in absorbance, Without antibody (Composition B) (potassium thiocyanate 200 mM): 50.0 mABS/min | Relative sensitivity (potassium thiocyanate 200 mM): 111.9% | Percent residual enzyme activity (potassium thiocyanate 200 mM): 4.4% | Change in absorbance, Containing Antibody (Composition A) (potassium thiocyanate 300 mM): 3.0 mABS/min | Change in absorbance, Without antibody (Composition B) (potassium thiocyanate 300 mM): 53.6 mABS/min | Relative sensitivity (potassium thiocyanate 300 mM): 119.9% | Percent residual enzyme activity (potassium thiocyanate 300 mM): 5.6% | Change in absorbance, Containing Antibody (Composition A) (potassium thiocyanate 400 mM): 3.8 mABS/min | Change in absorbance, Without antibody (Composition B) (potassium thiocyanate 400 mM): 54.5 mABS/min | Relative sensitivity (potassium thiocyanate 400 mM): 121.9% | Percent residual enzyme activity (potassium thiocyanate 400 mM): 7.0% | Change in absorbance, Containing Antibody (Composition A) (potassium thiocyanate 500 mM): 4.7 mABS/min | Change in absorbance, Without antibody (Composition B) (potassium thiocyanate 500 mM): 53.7 mABS/min | Relative sensitivity (potassium thiocyanate 500 mM): 120.1% | Percent residual enzyme activity (potassium thiocyanate 500 mM): 8.8% | Change in absorbance, Containing Antibody (Composition A) (potassium thiocyanate 600 mM): 5.7 mABS/min | Change in absorbance, Without antibody (Composition B) (potassium thiocyanate 600 mM): 51.9 mABS/min | Relative sensitivity (potassium thiocyanate 600 mM): 116.1% | Percent residual enzyme activity (potassium thiocyanate 600 mM): 11.0% | Change in absorbance, Containing Antibody (Composition A) (potassium thiocyanate 700 mM): 7.2 mABS/min | Change in absorbance, Without antibody (Composition B) (potassium thiocyanate 700 mM): 48.6 mABS/min | Relative sensitivity (potassium thiocyanate 700 mM): 108.7% | Percent residual enzyme activity (potassium thiocyanate 700 mM): 14.8% | Change in absorbance, Containing Antibody (Composition A) (potassium thiocyanate 800 mM): 8.2 mABS/min | Change in absorbance, Without antibody (Composition B) (potassium thiocyanate 800 mM): 47.1 mABS/min | Relative sensitivity (potassium thiocyanate 800 mM): 105.4% | Percent residual enzyme activity (potassium thiocyanate 800 mM): 17.4% | Change in absorbance, Containing Antibody (Composition A) (potassium thiocyanate 900 mM): 9.6 mABS/min | Change in absorbance, Without antibody (Composition B) (potassium thiocyanate 900 mM): 43.3 mABS/min | Relative sensitivity (potassium thiocyanate 900 mM): 96.9% | Percent residual enzyme activity (potassium thiocyanate 900 mM): 22.2%
SMILES: O=[N+]([O-])c1ccc(O[C@H]2O[C@H](CO)[C@@H](O[C@H]3O[C@H](CO)[C@@H](O[C@@H]4O[C@H](CO)[C@H](O)[C@H](O)[C@H]4O)[C@H](O)[C@H]3O)[C@H](O)[C@H]2O)c(Cl)c1 [GalG2CNP, 2-chloro-4-nitrophenyl 4-O-β-D-galactopyranosylmaltoside]

Change in absorbance, Containing Antibody (Composition A) (potassium thiocyanate 0 mM): 0.5 mABS/min | Change in absorbance, Without antibody (Composition B) (potassium thiocyanate 0 mM): 4.9 mABS/min | Relative sensitivity (potassium thiocyanate 0 mM): 11.0% | Percent residual enzyme activity (potassium thiocyanate 0 mM): 10.2% | Change in absorbance, Containing Antibody (Composition A) (potassium thiocyanate 50 mM): 0.7 mABS/min | Change in absorbance, Without antibody (Composition B) (potassium thiocyanate 50 mM): 14.8 mABS/min | Relative sensitivity (potassium thiocyanate 50 mM): 33.1% | Percent residual enzyme activity (potassium thiocyanate 50 mM): 4.7% | Change in absorbance, Containing Antibody (Composition A) (potassium thiocyanate 100 mM): 0.9 mABS/min | Change in absorbance, Without antibody (Composition B) (potassium thiocyanate 100 mM): 21.9 mABS/min | Relative sensitivity (potassium thiocyanate 100 mM): 49.0% | Percent residual enzyme activity (potassium thiocyanate 100 mM): 4.1% | Change in absorbance, Containing Antibody (Composition A) (potassium thiocyanate 140 mM): 1.3 mABS/min | Change in absorbance, Without antibody (Composition B) (potassium thiocyanate 140 mM): 26.6 mABS/min | Relative sensitivity (potassium thiocyanate 140 mM): 59.5% | Percent residual enzyme activity (potassium thiocyanate 140 mM): 4.9% | Change in absorbance, Containing Antibody (Composition A) (potassium thiocyanate 200 mM): 1.5 mABS/min | Change in absorbance, Without antibody (Composition B) (potassium thiocyanate 200 mM): 31.4 mABS/min | Relative sensitivity (potassium thiocyanate 200 mM): 70.2% | Percent residual enzyme activity (potassium thiocyanate 200 mM): 4.8% | Change in absorbance, Containing Antibody (Composition A) (potassium thiocyanate 300 mM): 2.2 mABS/min | Change in absorbance, Without antibody (Composition B) (potassium thiocyanate 300 mM): 39.7 mABS/min | Relative sensitivity (potassium thiocyanate 300 mM): 88.8% | Percent residual enzyme activity (potassium thiocyanate 300 mM): 5.5% | Change in absorbance, Containing Antibody (Composition A) (potassium thiocyanate 400 mM): 3.3 mABS/min | Change in absorbance, Without antibody (Composition B) (potassium thiocyanate 400 mM): 43.2 mABS/min | Relative sensitivity (potassium thiocyanate 400 mM): 96.6% | Percent residual enzyme activity (potassium thiocyanate 400 mM): 7.6% | Change in absorbance, Containing Antibody (Composition A) (potassium thiocyanate 500 mM): 4.6 mABS/min | Change in absorbance, Without antibody (Composition B) (potassium thiocyanate 500 mM): 45.8 mABS/min | Relative sensitivity (potassium thiocyanate 500 mM): 102.5% | Percent residual enzyme activity (potassium thiocyanate 500 mM): 10.0% | Change in absorbance, Containing Antibody (Composition A) (potassium thiocyanate 600 mM): 5.4 mABS/min | Change in absorbance, Without antibody (Composition B) (potassium thiocyanate 600 mM): 47.3 mABS/min | Relative sensitivity (potassium thiocyanate 600 mM): 105.8% | Percent residual enzyme activity (potassium thiocyanate 600 mM): 11.4% | Change in absorbance, Containing Antibody (Composition A) (potassium thiocyanate 700 mM): 7.0 mABS/min | Change in absorbance, Without antibody (Composition B) (potassium thiocyanate 700 mM): 47.1 mABS/min | Relative sensitivity (potassium thiocyanate 700 mM): 105.4% | Percent residual enzyme activity (potassium thiocyanate 700 mM): 14.9% | Change in absorbance, Containing Antibody (Composition A) (potassium thiocyanate 800 mM): 8.4 mABS/min | Change in absorbance, Without antibody (Composition B) (potassium thiocyanate 800 mM): 45.8 mABS/min | Relative sensitivity (potassium thiocyanate 800 mM): 102.5% | Percent residual enzyme activity (potassium thiocyanate 800 mM): 18.3% | Change in absorbance, Containing Antibody (Composition A) (potassium thiocyanate 900 mM): 10.0 mABS/min | Change in absorbance, Without antibody (Composition B) (potassium thiocyanate 900 mM): 44.7 mABS/min | Relative sensitivity (potassium thiocyanate 900 mM): 100.0% | Percent residual enzyme activity (potassium thiocyanate 900 mM): 22.4%
SMILES: O=[N+]([O-])c1ccc(O[C@H]2O[C@H](CO)[C@@H](O[C@H]3O[C@H](CO)[C@@H](O[C@H]4O[C@H](CO)[C@@H](O)[C@H](O)[C@H]4O)[C@H](O)[C@H]3O)[C@H](O)[C@H]2O)c(Cl)c1 [Example G3CNP, 2-chloro-4-nitrophenylmaltotrioside, reference compound]

From patent US6350585B1, “Reagent for assay of amylase isozyme activity” (priority 1998, dated 2002)
